# Measured values reported in patent publication US4912036A, “Rapid differentiation of bacteria using cyclic polypeptide antibiotics” (Eastman Kodak Company, priority 1986, dated 1990).
# Tests used:
# [1] = test system: S. aureus; experiment: MTT reduction solution assay, ΔOD 540 nm; assay type: cell-based, Staphylococcus aureus; conditions: S. aureus (+) 5×10^7, gramicidin S 0.00625 mg/ml, 37° C.
# Protocol: (§1) These examples illustrate the differentiation of bacteria using a tetrazolium salt and phenolic dye as the reducible compounds and two cyclic polypeptide antibiotics according to the present invention. The tetrazolium salt was 3-(4,5-dimethyl-2-thiazolyl) -2,5-diphenyl-2H-tetrazolium bromide (MTT) which forms a colored formazan dye when reduced. The phenolic dye was 2,6-dichloroindophenol (DCIP) which forms a colorless species when reduced.
# (§2) Solutions of the reducible compounds were prepared with the following: HEPES buffer (3 ml, 0.05 molar, pH 7.5), TRITON X-100 nonionic surfactant (1% concentration), glucose (50 μl of 10% in water), tryptose (50 μl of a 10% solution in water), MTT (25 μl of 5 mg/ml methanol) or DCIP (25 μl of 3 mg/ml methanol) and phenazine methosultate ETA (25 μl of 3 mg/ml methanol).
# (§3) Test solutions were prepared from the following: reducible compound solution from above (200 μl), 50 μl of either gramicidin S solution (6 mg/ml methanol and 9 ml of buffer) or tyrocidin solution (100 mg/ml methanol and 8 ml of buffer) and 50 μl of cell suspension. […] The change in optical density (ΔOD) was determined after 30 minutes at 37° C. at 540 nm for the MTT assay and at 620 nm for the DCIP assay using a commercially available spectrophotometer.
# [2] = test system: E. cloacae; experiment: MTT reduction solution assay, ΔOD 540 nm; assay type: cell-based, Enterobacter cloacae; conditions: E. cloacae (-) 5×10^7, gramicidin S 0.00625 mg/ml, 37° C.
# Protocol: as §1, §2, §3
# [3] = test system: P. aeruginosa; experiment: RIND XXIX reduction solution assay, Δ fluorescence; assay type: cell-based, Pseudomonas aeruginosa; conditions: P. aeruginosa (gram -) about 5×10^7 cells/ml, gramicidin S 0.1 mg/ml, 37° C.
# Protocol: (§4) Bacterial suspensions were prepared by growing the cells in BHT broth to stationary phase overnight at 37° C. P. auruginosa was grown with agitation. About 40 ml of each overnight culture was centrifuged, decanted and washed once with 0.05 molar potassium phosphate buffer or 0.05 molar N-2-hydroxy-ethylpiperazine-N'-2-ethanesulfonic acid (HEPES) buffer, pH 7.8, and resuspended in buffer.
# (§5) Dispersions containing RIND compounds were prepared by dissolving the RIND compound in N,N-dimethylformamide (DMF) at 16 mg compound per ml of solvent. An aliquot (250 μl) of the resulting solution was added to 500 μl of TRITON X-100 surfactant. This mixture was then added dropwise with stirring to 25 ml of 0.05 molar HEPES buffer. A dispersion of RIND XXIX was prepared similarly except that DMF was acidified with 0.1% sulfuric acid. Compositions containing water-compatible RIND compounds were prepared as described above except the surfactant was omitted.
# (§6) Each test solution contained the following: dispersion of RIND XXIX (25 μl) prepared as described above, glucose (400 μl of 10% aqueous solution), tryptose (400 μl of 10% aqueous solution), trimethyl-1,4-benzoquinone ETA (500 μl of 1.5 mg/ml methanol). Aliquots (200 μl) of the mixture were mixed with solutions of the antibiotics (50 μl). The cell suspensions (50 μl) were then added. The final concentration of gramcidin S and tyrocidin were 0.1 mg/ml and 3.3 mg/ml, respectively. The final cell concentration was about 5×10^7 cells/ml. Cell control solutions contained all reagents except antibiotics. Background controls consisted of both buffer and solution controls. […]
# (§7) The solutions were incubated at 37° C. for 30 minutes, and the change in fluorescence emission (Δ fluorescence) was determined as the difference between the readings taken when the solutions were first mixed and then after 30 minutes incubation. Measurements were made in a commercially available MICROFLUOR Reader (available from Dynatech Laboratories, Alexandria, Virginia, U.S.A.), modified with an excitation filter at 540 nm, an emission filter at 620 nm and a Xenon lamp. […]
# [4] = test system: various bacteria which are found in the human urinary tract; experiment: Differentiation with RIND VII, overall result; assay type: cell-based; conditions: gramicidin S 10^-4 molar
# Protocol: (§8) TERGITOL 7 anionic surfactant was used to differentiate viable bacteria according to the prior art method. Various concentrations of TERGITOL 7 surfactant were mixed with a 10% glucose solution (50 μl), 3-(4,5-dimethyl-2-thiazolyl)-2,5-diphenyl-2N-tetrazolium bromide (MTT) (25 μl at 5 mg/ml methanol) or a RIND VII dispersion (1.5 ml) and phenazine methosulfate ETA (25 μl at 3 mg/ml methanol). The volume of each test solution was brought to 3 ml with potassium phosphate buffer. A cell suspension (100 μl at about 10^8 cells/ml) was then added. The solutions were incubated at 37° C. for 15 and 30 minutes in the presence of either E. coli, a gram(-) bacterium, or S. aureus, a gram(+) bacterium. The amount of dye formed was then determined visually, and graded as follows: "O" indicates no dye formation, +/- indicates faint dye formation, 1+ indicates light dye formation, 2+ indicates moderate dye formation, 3+ indicates strong dye formation, and 4+ indicates very strong dye formation.
# Gramicidin S, a cyclic polypeptide antibiotic, was similarly used with RIND VII in the differentiation of various bacteria which are found in the human urinary tract. Assays were performed as described above. The final concentration of gramicidin S in each test was 10^-4 molar. […] Dye measurements were made at 635 nm and expressed below as the change in optical density (ΔOD) which was corrected for background.
# [5] = test system: E. coli; experiment: RIND VII reduction solution assay, ΔOD 635 nm; assay type: cell-based, Escherichia coli; conditions: E. coli 7 × 10^7 /ml, antibiotic 10^-4 molar
# Protocol: as §4
# as §8, with “formation. […]” for “formation.”
# [6] = test system: viable gram-positive and gram-negative bacteria; experiment: Differentiation in RIND XXIX solution assays, overall result; assay type: cell-based; conditions: gramicidin S 0.1 mg/ml, tyrocidin 3.3 mg/ml
# Protocol: Each test solution contained the following: dispersion of RIND XXIX (25 μl) prepared as described above, glucose (400 μl of 10% aqueous solution), tryptose (400 μl of 10% aqueous solution), trimethyl-1,4-benzoquinone ETA (500 μl of 1.5 mg/ml methanol). Aliquots (200 μl) of the mixture were mixed with solutions of the antibiotics (50 μl). The cell suspensions (50 μl) were then added. The final concentration of gramcidin S and tyrocidin were 0.1 mg/ml and 3.3 mg/ml, respectively. The final cell concentration was about 5×10^7 cells/ml. Cell control solutions contained all reagents except antibiotics. Background controls consisted of both buffer and solution controls. The buffer control contained all reagents except antibiotics and cells. The solution control contained all reagents except cells.
# The solutions were incubated at 37° C. for 30 minutes, and the change in fluorescence emission (Δ fluorescence) was determined as the difference between the readings taken when the solutions were first mixed and then after 30 minutes incubation. Measurements were made in a commercially available MICROFLUOR Reader (available from Dynatech Laboratories, Alexandria, Virginia, U.S.A.), modified with an excitation filter at 540 nm, an emission filter at 620 nm and a Xenon lamp.
# This example illustrates the practice of this invention to identify a Proteus species in solution. Test solutions and cell control solutions were prepared and tested as described in Example 2 and 3 except that polymixin B was used at 0.01 mg/ml of methanol. The final cell concentration was about 5×10^7 cells/ml.
# [7] = test system: K. pneumoniae; experiment: RIND VII reduction solution assay, ΔOD 635 nm; assay type: cell-based, Klebsiella pneumoniae; conditions: K. pneumoniae 7 × 10^7 /ml, antibiotic 10^-4 molar
# [8] = test system: P. vulgaris; experiment: DCIP reduction solution assay, ΔOD 620 nm; assay type: cell-based, Proteus vulgaris; conditions: P. vulgaris (-) 5×10^7, gramicidin S 0.00625 mg/ml, 37° C.
# Protocol: as §1, §2, §3
# [9] = test system: S. faecalis; experiment: RIND VII reduction solution assay, ΔOD 635 nm; assay type: cell-based, Streptococcus faecalis; conditions: S. faecalis 7 × 10^7 /ml, antibiotic 10^-4 molar
# Protocol: as §4
# as §8, with “formation. […]” for “formation.”
# [10] = test system: E. cloacae; experiment: RIND XXIX reduction solution assay, Δ fluorescence; assay type: cell-based, Enterobacter cloacae; conditions: E. cloacae (gram -) about 5×10^7 cells/ml, gramicidin S 0.1 mg/ml, 37° C.
# Protocol: as §4, §5, §6, §7
substance,measurement,setting,value
gramicidin S,"ΔOD, 540 nm after 30 Minutes",[1],0.177
same,"ΔOD, 540 nm after 30 Minutes",[2],0.931
same,Δ Fluorescence (30 Minutes),[3],> 4000
same,"inhibition of reduction of the RIND compound, in words",[4],selectively inhibits the reduction of the RIND compound by viable gram-positive bacteria but not gram-negative bacteria
same,Corrected ΔOD (15 Minutes),[5],> 2.0
same,"differentiation between viable gram-positive and gram-negative bacteria, in words",[6],can be used with RIND XXIX to differentiate between viable gram-positive and gram-negative bacteria
same,Corrected ΔOD (15 Minutes),[7],> 2.0
same,"ΔOD, 620 nm after 30 Minutes",[8],1.029
same,Corrected ΔOD (15 Minutes),[9],0.125
same,Δ Fluorescence (30 Minutes),[10],> 4000
